# Assay results: ChEMBL document CHEMBL1201862, “PubChem BioAssay data set” (2004)
# Active and inactive are the calls of the source.
# Assays:
# cells [1] = type: functional, cell-based
# [2] = target: T1, Trace amine-associated receptor 1 (Homo sapiens, UniProt Q96RJ0); assay: Fluorescence-based cell-based high throughput dose response assay to identify agonists of the human trace amine associated receptor 1 (TAAR1).; type: functional
# T1 sequence (Q96RJ0 whole entry): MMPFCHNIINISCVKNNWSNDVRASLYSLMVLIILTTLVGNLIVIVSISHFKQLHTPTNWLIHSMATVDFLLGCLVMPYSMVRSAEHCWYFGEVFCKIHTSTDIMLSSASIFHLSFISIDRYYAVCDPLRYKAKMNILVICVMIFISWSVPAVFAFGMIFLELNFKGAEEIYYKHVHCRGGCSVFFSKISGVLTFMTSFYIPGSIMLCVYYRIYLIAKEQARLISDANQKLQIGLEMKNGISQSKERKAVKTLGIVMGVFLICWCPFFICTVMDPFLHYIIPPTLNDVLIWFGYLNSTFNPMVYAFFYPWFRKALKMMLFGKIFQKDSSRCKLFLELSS
# [3] = target: T1, Trace amine-associated receptor 1; assay: Counterscreen for agonists of the human trace amine associated receptor 1 (hTAAR1): Fluorescence-based cell-based high throughput dose response assay to identify hTAAR1 agonist that also desensitize TAAR1 receptor response.; type: functional
# cells [4] = type: functional, cell-based; remark: listed apart in the source
# [5] = system: Streptococcus sp. 'group A'; assay: Streptococcus pyogenes SK(-)GAS viability under kanamycin – luminescence, BacTiterGlo, confirmation, counter-screen for streptokinase expression inhibitor project, dose response (AID 1900); type: functional, organism-based
# Streptococcus = assay: GAS UMAA2166 growth inhibition – luminescence, BacTiterGlo, counter-screen for streptokinase expression inhibitor project, dose response (AID 1915); type: functional, organism-based;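 further: potency for reduction of bacterial viability or growth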
# Albumin = Albumin (Bos taurus, UniProt P02769); assay: Counterscreen for inhibitors of T-cell receptor (TCR)-CD3 interaction: Fluorescence-based biochemical high throughput dose response assay to identify inhibitors of T-cell receptor (TCR)-CD3 interaction using a TAMRA-labeled BSA probe.; type: functional
# Chain of Albumin (P02769 whole entry): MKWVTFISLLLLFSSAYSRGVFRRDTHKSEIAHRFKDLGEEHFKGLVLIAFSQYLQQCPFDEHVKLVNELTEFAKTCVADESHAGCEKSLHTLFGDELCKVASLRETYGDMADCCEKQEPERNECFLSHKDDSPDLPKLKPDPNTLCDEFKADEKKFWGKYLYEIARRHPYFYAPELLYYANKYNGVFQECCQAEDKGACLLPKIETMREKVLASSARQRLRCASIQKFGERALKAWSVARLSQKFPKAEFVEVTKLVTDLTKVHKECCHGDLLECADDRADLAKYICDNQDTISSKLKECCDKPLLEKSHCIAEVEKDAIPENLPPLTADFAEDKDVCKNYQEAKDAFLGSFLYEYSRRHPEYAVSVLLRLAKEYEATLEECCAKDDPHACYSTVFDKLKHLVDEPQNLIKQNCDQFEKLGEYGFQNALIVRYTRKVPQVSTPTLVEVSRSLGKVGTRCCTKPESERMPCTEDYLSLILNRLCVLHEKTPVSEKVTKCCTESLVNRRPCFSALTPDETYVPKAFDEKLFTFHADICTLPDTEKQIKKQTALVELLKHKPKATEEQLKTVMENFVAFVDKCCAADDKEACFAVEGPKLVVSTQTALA
# cells [6] = type: functional, cell-based; remark: listed apart in the source
# [7] = target: T2, Nuclear receptor subfamily 0 group B member 1 (Homo sapiens, UniProt P51843); type: functional, cell-based;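 further: HEK293T cells transfected with SF-1 and DAX-1 plus StAR promoter luciferase reporter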
# T2 sequence (P51843 whole entry): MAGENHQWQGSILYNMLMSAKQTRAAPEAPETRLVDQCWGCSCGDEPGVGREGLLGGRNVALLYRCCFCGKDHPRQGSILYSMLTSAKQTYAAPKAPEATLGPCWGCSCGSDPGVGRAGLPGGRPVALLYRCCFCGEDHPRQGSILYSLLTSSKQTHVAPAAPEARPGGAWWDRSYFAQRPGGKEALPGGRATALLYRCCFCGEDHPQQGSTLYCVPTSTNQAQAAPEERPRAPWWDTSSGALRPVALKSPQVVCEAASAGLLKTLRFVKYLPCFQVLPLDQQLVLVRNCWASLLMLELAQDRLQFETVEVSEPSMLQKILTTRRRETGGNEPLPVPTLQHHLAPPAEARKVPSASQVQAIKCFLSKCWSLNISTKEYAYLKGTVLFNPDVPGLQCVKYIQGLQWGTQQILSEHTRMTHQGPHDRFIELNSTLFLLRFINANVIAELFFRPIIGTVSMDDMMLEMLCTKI
# [8] = target: T3, Sentrin-specific protease 8 (Homo sapiens, UniProt Q96LD8); type: functional
# T3 sequence (Q96LD8 whole entry): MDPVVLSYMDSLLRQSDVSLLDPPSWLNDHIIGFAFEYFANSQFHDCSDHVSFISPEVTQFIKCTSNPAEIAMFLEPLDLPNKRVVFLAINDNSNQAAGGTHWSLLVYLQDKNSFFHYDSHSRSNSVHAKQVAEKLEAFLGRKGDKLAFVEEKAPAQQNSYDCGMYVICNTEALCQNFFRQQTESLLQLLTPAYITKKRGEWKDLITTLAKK
# [9] = target: T3, Sentrin-specific protease 8; type: functional; remark: listed apart in the source
# [10] = Luminescence Cell-Based Dose Confirmation HTS to Identify Activators of 5'UTR Stem-Loop Driven Alpha-Synuclein mRNA Translation in H4 Neuroglioblastoma Cells. [Related pubchem assays: 1829 (Project Summary), 1814 (Primary HTS)]; type: functional
# [11] = Luminescence Cell-Based Dose Response HTS to Identify Activators of Luciferase Translation or Activity in H4 […] Cells. [Related pubchem assays: 1829 (Project Summary), 1814 (Primary HTS)]; type: functional
# H4 = assay: Luminescence Cell-Based Dose Response HTS to Identify Activators of 5'UTR Stem-Loop Driven Prion Protein mRNA Translation in H4 Neuroglioblastoma Cells. [Related pubchem assays: 1829 (Project Summary), 1814 (Primary HTS)]; type: functional; conditions: Homo sapiens
# [12] = target: T4, Endoribonuclease toxin MazF (Escherichia coli K-12, UniProt P0AE70); assay: activation of MazEF endoribonuclease cleavage – biochemical, fluorescence, single-stranded RNA substrate, uHTS hits, dose response (AID 588481); type: functional
# T4 sequence (P0AE70 whole entry): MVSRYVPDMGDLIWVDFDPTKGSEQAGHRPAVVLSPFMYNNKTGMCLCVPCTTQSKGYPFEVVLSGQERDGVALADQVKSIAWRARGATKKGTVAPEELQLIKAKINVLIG
# [13] = target: T4, Endoribonuclease toxin MazF; assay: substrate-only fluorescence increase artefacts – biochemical, single-stranded RNase substrate, counter-screen for MazEF activator project, dose response (AID 588502); type: functional
# [14] = target: Induced myeloid leukemia cell differentiation protein Mcl-1 (Homo sapiens, UniProt Q07820); type: functional
# Chain of Induced myeloid leukemia cell differentiation protein Mcl-1 (Q07820 whole entry): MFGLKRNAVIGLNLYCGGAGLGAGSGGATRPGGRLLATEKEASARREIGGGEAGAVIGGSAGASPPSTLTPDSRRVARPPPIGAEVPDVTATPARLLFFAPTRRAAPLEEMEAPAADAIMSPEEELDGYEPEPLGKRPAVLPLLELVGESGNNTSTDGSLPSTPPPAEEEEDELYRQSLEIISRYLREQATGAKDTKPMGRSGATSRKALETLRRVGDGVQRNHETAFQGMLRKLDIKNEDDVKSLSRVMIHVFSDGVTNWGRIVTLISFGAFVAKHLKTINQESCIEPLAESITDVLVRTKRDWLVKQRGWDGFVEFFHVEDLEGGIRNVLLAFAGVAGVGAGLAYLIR
# [15] = target: T5, Small ubiquitin-related modifier 1 (Homo sapiens, UniProt P63165); assay: SUMO1 protein interaction blockers, potency – biochemical, fluorescence polarization, uHTS hits, dose response (AID 624382); type: functional; conditions: read-out: IC50_Mean
# T5 sequence (P63165 whole entry): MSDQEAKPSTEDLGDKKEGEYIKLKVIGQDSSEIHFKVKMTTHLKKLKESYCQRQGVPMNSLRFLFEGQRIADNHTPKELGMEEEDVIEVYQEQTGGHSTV
# [16] = target: T5, Small ubiquitin-related modifier 1; assay: SUMO1 protein-protein binding blockers, potency – biochemical, FRET, dose response (AID 624383); type: functional; conditions: read-out: IC50_Mean
# NS3 = NS3 (Hepatitis C virus, UniProt A3EZJ3); assay: PubChem AID 2173; design: species or system Hepacivirus hominis
# Chain of NS3 (A3EZJ3 whole entry): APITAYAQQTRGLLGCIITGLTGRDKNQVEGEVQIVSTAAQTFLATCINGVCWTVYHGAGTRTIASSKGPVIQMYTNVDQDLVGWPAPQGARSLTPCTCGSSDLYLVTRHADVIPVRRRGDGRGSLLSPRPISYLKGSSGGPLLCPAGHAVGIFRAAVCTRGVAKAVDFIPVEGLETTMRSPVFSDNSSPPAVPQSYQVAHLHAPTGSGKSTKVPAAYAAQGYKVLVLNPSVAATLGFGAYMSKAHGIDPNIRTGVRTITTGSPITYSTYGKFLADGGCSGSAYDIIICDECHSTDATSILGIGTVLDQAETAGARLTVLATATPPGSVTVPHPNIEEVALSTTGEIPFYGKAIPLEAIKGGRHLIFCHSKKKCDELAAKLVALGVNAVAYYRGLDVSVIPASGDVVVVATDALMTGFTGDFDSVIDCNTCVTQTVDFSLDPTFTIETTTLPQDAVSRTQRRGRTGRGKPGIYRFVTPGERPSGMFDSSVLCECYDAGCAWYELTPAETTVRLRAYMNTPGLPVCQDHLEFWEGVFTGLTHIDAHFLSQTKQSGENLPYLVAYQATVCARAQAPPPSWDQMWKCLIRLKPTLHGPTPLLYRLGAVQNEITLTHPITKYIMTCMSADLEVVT
# [17] = target: Glucose-6-phosphate 1-dehydrogenase (Homo sapiens, UniProt P11413); assay: inhibition of Homo sapiens G6PD, dose series – biochemical, fluorescence, selectivity assay for P. falciparum G6PD inhibitor project, dose response (AID 504792); type: functional
# Chain of Glucose-6-phosphate 1-dehydrogenase (P11413 whole entry): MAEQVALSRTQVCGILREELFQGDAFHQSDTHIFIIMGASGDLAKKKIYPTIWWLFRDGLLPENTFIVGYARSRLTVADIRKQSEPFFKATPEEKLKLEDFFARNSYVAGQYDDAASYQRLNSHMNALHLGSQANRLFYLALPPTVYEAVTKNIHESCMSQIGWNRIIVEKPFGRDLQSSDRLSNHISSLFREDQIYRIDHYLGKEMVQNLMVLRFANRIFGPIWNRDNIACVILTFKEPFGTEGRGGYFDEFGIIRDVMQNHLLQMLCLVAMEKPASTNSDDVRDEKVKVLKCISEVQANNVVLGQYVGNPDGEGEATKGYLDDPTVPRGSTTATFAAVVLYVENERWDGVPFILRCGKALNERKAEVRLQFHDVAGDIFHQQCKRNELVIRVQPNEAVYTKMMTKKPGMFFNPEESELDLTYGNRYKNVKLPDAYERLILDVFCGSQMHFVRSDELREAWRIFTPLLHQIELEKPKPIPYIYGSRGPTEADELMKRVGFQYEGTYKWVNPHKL
# [18] = target: T6, Heat shock factor protein 1 (Mus musculus, UniProt P38532); assay: enhancement of HSF1-driven luciferase signal – cell-based, NIH3T3, luminescence, dose retest, confirmation (AID 435004); type: functional;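 further: stress induced by proteasome inhibitor MG132 added 30 min after compound; luciferase reporter driven by HSF1 response element in NIH3T3 cells; actives raise luminescence as potentiators of the MG132 stress response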
# T6 sequence (P38532 whole entry): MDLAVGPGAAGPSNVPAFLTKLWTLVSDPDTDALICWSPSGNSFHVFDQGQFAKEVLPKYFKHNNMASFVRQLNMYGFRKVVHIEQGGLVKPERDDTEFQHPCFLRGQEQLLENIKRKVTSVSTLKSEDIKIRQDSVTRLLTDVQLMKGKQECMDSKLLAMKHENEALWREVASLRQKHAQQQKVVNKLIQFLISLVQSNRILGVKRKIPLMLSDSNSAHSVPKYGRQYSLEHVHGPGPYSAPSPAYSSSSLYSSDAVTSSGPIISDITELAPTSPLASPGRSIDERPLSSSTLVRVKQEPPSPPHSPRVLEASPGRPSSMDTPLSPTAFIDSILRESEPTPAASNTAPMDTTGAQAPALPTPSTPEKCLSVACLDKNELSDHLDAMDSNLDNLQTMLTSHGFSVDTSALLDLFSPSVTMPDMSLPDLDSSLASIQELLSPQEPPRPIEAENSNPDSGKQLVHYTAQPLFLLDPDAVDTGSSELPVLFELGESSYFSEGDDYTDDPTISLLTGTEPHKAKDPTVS
# Genome polyprotein = Genome polyprotein (dengue virus type 2, UniProt P29990); assay: flavivirus cap methylation enzyme inhibition – biochemical, confirmation dose response, primary screen (AID 588689); type: functional
# Chain of Genome polyprotein (P29990 2492-3391 limits assumed): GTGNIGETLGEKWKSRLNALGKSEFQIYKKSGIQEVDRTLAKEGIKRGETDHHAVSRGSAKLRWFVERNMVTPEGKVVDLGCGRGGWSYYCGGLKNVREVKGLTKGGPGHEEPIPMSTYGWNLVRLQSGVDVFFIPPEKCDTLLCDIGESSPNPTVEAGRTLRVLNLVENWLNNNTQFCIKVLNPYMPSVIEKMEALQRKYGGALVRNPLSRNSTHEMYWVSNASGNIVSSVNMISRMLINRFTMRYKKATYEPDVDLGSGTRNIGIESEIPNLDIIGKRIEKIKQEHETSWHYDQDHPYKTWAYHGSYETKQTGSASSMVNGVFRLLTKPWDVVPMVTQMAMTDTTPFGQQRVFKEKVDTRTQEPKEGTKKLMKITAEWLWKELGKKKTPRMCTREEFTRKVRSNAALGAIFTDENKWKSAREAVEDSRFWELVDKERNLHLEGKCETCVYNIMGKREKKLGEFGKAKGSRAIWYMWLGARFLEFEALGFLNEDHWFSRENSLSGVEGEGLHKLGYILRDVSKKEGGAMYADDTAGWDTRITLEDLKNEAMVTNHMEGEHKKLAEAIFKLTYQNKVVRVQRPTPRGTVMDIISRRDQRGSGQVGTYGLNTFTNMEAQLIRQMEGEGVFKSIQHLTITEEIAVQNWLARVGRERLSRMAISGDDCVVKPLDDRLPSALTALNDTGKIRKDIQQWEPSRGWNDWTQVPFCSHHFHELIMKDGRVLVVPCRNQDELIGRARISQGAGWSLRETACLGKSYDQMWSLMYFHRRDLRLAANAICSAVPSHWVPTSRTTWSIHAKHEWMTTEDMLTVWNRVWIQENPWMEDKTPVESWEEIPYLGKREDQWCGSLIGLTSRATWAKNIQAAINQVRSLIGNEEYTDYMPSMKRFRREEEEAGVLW
# [19] = target: T7, Carboxy-terminal domain RNA polymerase II polypeptide A small phosphatase 1 (Homo sapiens, UniProt Q9GZU7); assay: CTDSP1 inhibitors, concentration-response, biochemical, absorbance readout, ultra-high-throughput screen actives (AID 540297); type: functional
# T7 sequence (Q9GZU7 whole entry): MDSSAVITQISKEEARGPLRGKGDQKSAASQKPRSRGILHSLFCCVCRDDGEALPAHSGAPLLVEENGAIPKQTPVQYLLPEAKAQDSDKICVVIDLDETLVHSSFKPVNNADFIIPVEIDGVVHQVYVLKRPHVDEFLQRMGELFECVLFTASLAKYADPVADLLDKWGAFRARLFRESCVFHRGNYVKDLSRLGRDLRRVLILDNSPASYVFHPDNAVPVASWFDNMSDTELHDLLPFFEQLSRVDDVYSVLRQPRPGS
# [20] = target: DNA (cytosine-5)-methyltransferase 1 (Homo sapiens, UniProt P26358); assay: inhibition of DNA methylation by DNMT1 – biochemical, fluorescent molecular beacon, confirmation (AID 602386); type: functional
# Chain of DNA (cytosine-5)-methyltransferase 1 (P26358 whole entry): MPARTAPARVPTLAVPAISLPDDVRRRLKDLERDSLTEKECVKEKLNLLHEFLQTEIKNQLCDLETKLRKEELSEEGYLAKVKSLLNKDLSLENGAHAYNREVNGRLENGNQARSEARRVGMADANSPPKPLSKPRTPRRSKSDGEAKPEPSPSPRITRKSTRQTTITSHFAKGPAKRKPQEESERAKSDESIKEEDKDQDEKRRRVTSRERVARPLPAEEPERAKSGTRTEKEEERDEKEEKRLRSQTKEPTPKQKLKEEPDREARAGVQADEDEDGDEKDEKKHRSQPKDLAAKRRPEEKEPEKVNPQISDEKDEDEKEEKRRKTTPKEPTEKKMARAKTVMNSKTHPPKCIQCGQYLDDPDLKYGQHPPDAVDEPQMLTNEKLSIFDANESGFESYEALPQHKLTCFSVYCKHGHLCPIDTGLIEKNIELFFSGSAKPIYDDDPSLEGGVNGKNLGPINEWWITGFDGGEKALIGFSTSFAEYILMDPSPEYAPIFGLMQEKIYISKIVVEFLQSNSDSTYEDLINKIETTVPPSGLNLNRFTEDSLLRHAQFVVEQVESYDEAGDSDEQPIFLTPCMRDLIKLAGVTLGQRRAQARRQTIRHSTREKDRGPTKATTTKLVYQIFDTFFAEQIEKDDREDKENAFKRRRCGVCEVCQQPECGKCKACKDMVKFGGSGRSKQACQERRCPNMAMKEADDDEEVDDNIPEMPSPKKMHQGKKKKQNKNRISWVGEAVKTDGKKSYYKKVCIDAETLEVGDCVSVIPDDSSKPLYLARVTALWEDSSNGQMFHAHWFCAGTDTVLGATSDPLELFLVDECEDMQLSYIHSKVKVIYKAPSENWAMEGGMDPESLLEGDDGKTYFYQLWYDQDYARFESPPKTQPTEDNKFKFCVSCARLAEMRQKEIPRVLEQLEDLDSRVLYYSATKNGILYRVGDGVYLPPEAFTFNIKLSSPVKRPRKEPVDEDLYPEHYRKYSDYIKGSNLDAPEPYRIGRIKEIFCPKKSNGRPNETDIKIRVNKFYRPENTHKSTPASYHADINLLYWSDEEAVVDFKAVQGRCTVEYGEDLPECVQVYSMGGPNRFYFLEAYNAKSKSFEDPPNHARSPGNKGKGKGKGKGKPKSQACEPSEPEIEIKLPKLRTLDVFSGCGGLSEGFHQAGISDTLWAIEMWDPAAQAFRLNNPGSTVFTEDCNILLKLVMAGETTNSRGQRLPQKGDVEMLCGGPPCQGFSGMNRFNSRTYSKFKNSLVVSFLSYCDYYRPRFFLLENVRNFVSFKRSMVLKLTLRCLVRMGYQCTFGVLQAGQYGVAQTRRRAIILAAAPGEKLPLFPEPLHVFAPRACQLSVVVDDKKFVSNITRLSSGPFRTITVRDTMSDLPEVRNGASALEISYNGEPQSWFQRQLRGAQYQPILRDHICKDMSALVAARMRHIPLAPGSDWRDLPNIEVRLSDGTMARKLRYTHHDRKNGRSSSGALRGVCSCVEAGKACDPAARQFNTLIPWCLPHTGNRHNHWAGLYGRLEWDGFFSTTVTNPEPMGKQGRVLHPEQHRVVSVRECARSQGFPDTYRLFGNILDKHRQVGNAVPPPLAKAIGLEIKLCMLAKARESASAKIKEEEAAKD
# [21] = target: T8, Probable nicotinate-nucleotide adenylyltransferase (Staphylococcus aureus (strain N315), UniProt P65502); type: functional, Staphylococcus aureus subsp. aureus N315;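 on IC50 Mean: confirmatory dose-response retesting of NadD inhibitor hits first found in an ultra-high-throughput screen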
# T8 sequence (P65502 whole entry): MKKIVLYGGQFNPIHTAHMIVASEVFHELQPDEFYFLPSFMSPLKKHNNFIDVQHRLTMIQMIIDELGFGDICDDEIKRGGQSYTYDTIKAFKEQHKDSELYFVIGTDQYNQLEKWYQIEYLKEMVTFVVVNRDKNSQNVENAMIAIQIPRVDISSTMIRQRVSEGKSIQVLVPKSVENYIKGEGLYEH
# [22] = target: T8, Probable nicotinate-nucleotide adenylyltransferase; type: functional, Staphylococcus aureus subsp. aureus N315; conditions: read-out: IC50_Mean
# [23] = target: T9, Rac GTPase-activating protein 1 (Homo sapiens, UniProt Q9H0H5); assay: blockers of MgcRacGAP-driven Rac1 GTP hydrolysis – biochemical, ADP Hunter fluorescence, primary and confirmatory, confirmation (AID 624330); type: functional
# T9 sequence (Q9H0H5 whole entry): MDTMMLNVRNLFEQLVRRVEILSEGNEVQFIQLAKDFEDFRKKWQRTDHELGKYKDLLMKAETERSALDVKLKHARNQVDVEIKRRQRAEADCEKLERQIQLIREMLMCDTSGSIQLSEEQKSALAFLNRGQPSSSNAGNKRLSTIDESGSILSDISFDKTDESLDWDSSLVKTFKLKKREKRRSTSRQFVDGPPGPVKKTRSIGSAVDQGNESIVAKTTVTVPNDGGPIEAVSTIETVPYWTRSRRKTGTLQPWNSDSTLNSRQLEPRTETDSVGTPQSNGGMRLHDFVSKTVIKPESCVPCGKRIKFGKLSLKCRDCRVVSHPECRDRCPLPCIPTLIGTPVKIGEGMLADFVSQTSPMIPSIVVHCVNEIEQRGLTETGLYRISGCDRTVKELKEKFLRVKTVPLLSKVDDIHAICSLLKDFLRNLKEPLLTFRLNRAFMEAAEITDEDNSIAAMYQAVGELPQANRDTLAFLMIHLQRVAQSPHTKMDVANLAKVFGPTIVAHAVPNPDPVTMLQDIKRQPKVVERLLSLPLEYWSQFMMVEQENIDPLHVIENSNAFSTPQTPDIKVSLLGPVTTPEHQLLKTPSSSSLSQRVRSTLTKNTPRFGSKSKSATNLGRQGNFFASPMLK
smiles,measurement,setting,value
O=C(CC1C(=O)NCCN1CCCc1ccccc1)NCCc1ccccc1F (stereo unspecified),IC50,cells [1],> 29.9 µM (inactive)
same,EC50,[2],1.71 µM (active)
same,IC50,[3],7.17 µM (active)
same,EC50,cells [4],> 29.9 µM (inactive)
Cc1cc([N+](=O)[O-])cc(/C=N/n2c(C)nc3ccccc3c2=O)c1O,EC50,[5],8.39 µM (active)
same,EC50,Streptococcus,7.71 µM (active)
same,IC50,Albumin,> 94 µM (inactive)
C/C(=N/NC(=O)c1cccs1)c1cccc(N)c1,IC50,cells [6],> 67.6 µM (inactive)
same,IC50,[7],> 67.6 µM (inactive)
CC1=NN(c2ccc(C)cc2C)C(=O)C1C(c1ccccc1O)C1C(=O)N(c2ccc(C)cc2C)N=C1C (stereo unspecified),IC50,[8],7.5 µM (active)
same,IC50,[9],18.9 µM (active)
Cc1ccc2nc(N3C(=O)C(O)=C(C(=O)c4ccco4)C3c3cccs3)sc2c1 (stereo unspecified),EC50,[10],> 120 µM (not active)
same,EC50,[11],> 120 µM (not active)
same,EC50,[5],2.82 µM (active)
same,EC50,H4,> 120 µM (not active)
same,EC50,Streptococcus,4.98 µM (active)
same,EC50,[12],> 99 µM (inactive)
same,EC50,[13],> 99 µM (inactive)
same,IC50,cells [6],> 67.5 µM (inactive)
same,IC50,[7],> 67.5 µM (inactive)
COCCn1nnnc1C(c1ccc(O)c(OC)c1)N1CCc2ccccc2C1 (stereo unspecified),IC50,[14],7.06 µM (active)
same,IC50,cells [1],> 29.9 µM (inactive)
same,EC50,[2],0.695 µM (active)
same,IC50,[3],3.75 µM (active)
same,EC50,cells [4],> 29.9 µM (inactive)
O=C(CSc1ccc(-c2ccncc2)nn1)c1ccc(Cl)cc1,IC50,[15],> 66.6 µM (inactive)
same,IC50,[16],12.1 µM (active)
Cc1ccc(C2(C)NC(=O)N(CC(=O)Nc3ccc4[nH]c(=O)[nH]c4c3)C2=O)cc1 (stereo unspecified),IC50,[15],> 66.6 µM (inactive)
same,IC50,[16],16.5 µM (active)
COc1cccc(C2=NOC(C(=O)N3CCc4ccccc4C3)C2)c1 (stereo unspecified),IC50,[8],45.2 µM (active)
same,IC50,[9],9.21 µM (active)
Cc1ccc(/C=C/C(=O)Nc2ccc([N+](=O)[O-])c(NC(=O)/C=C/c3ccc(C)o3)c2)o1,IC50,NS3,41.3 µM (not active)
same,IC50,[14],2.12 µM (active)
same,IC50,[17],> 80 µM (inactive)
same,EC50,[18],228 µM (active)
same,IC50,Genome polyprotein,> 100 µM (active)
same,IC50,[19],5.89 µM (active)
same,IC50,[20],7.18 µM (active)
same,IC50,[21],5.24 µM (active)
same,IC50,[22],15.3 µM (active)
same,IC50,[23],165 µM (active)
